From patent US20260315507A1, “COMBINATION OF VITAMINS AND OLIGOSACCHARIDES FOR ENHANCING BONE GROWTH AND/OR BONE STRENGTH” (SOCIÉTÉ DES PRODUITS NESTLÉ S.A., priority 2023, published 2026)

Legend:
[1] = tested on: osteocalcin mRNA in MC3T3-E1 subclone 4 cells; assay: Osteocalcin mRNA levels (qPCR) in pre-osteoblastic cell line; assay type: cell-based; conditions: 21 days of differentiation, without ascorbic acid; 3 μM menaquinone-7, 1 nM 1α,25-dihydroxyvitamin D3 or 100 nM all-trans-retinoic acid; FIG. 1B
Description: (§1) The pre-osteoblastic cell line MC3T3-E1 subclone 4 (CRL-2593) was purchased from ATCC (Manassas; Virginia, USA). Cells were maintained in growth medium (GM) composed of ascorbic acid-free αMEM (ThermoFisher Scientific), supplemented with 10% fetal calf serum (FCS, ThermoFisher Scientific) and 1% penicillin/streptomycin. All culture media were refreshed every 2-3 days. Cells were passaged with trypsin/EDTA solution at less than 80% confluence. To induce differentiation into osteoblasts, cells were seeded at 5×10^4 cells/cm^2 and grown to confluency in GM for 24 h. Then, the medium was switched to differentiation medium (DM) composed of GM supplemented with 10 mM β-glycerophosphate and treatment solutions of interest. Ascorbic acid 50 μg/ml was also added to the DM depending on the experiment.
MC3T3-E1 subclone 4 cells were differentiated for 21 days (in DM without ascorbic acid except for the positive control) or 28 days (in DM containing ascorbic acid). Cells were then collected for gene expression analysis. […] RNA concentrations were measured using the DropSense96 (TRINEAN, Gentbrugge, Belgium).
cDNAs were synthetized using High-Capacity cDNA Reverse Transcription Kit (AppliedBiosystems; Waltham, Massachusetts, USA) according to the manufacturer's instructions. […] The relative gene expression was evaluated via the 2^-ΔCt method.

[2] = tested on: MC3T3-E1 subclone 4 cells; assay: Osteoblast alkaline phosphatase (ALP) activity in pre-osteoblastic cell line; assay type: cell-based; conditions: 7 days of differentiation, without ascorbic acid; 3 μM menaquinone-7, 1 nM 1α,25-dihydroxyvitamin D3 or 100 nM all-trans-retinoic acid; FIG. 1A
Description: as §1, with “experiment. […]” for “experiment.”
After 7 days of differentiation, cells were then collected for alkaline phosphatase (ALP) activity measurement as described previously with minor modifications. […] Enzymatic reaction was monitored at 405 nm after 4-Nitrophenyl phosphate disodium salt hexahydrate addition. Michaelis-Menten kinetics were evaluated at 30° C. for 30 min. […] The activity value was normalized by protein content measured via the Pierce BCA Protein Assay Kit (ThermoFisher Scientific) according to the manufacturer's instructions.

SMILES	effect on osteocalcin expression (mRNA) [1]	effect on ALP activity (marker of osteoblast differentiation) [2]
CC1=C(/C=C/C(C)=C/C=C/C(C)=C/C(=O)O)C(C)(C)CCC1 [vitamin A, all-trans-retinoic acid]	no significant effect	
C=C1/C(=C\C=C2/CCC[C@]3(C)[C@@H]([C@H](C)CCCC(C)(C)O)CC[C@@H]23)C[C@@H](O)C[C@@H]1O [vitamin D, 1α,25-Dihydroxyvitamin D3]	no significant effect	
CC(C)=CCC/C(C)=C/CC/C(C)=C/CC/C(C)=C/CC/C(C)=C/CC/C(C)=C/CC/C(C)=C/CC1=C(C)C(=O)c2ccccc2C1=O [vitamin K2, menaquinone-7]		no significant effect
